From US9518981B2, “Modified nucleic acid binding cyanine dyes for the detection of reactive oxygen species” (LIFE TECHNOLOGIES CORPORATION, priority 2012, dated 2016)

What was measured:
Jurkat cells [1] = experiment: Detection of TBHP-induced ROS by flow cytometry, with or without NAC; type: cell-based, human; conditions: 500 nM probe
Procedure: Jurkat cells were treated with phosphate buffered saline (FIG. 7, control), 200 μM tert-butyl-hydroperoxide (FIG. 7, TBHP), or 200 μM TBHP and 1 mM N-acetyl-L-cysteine (FIG. 7, TBHP+NAC), for one hour at 37° C., 5% CO2 prior to incubation with 500 nM Compound 1. Cell samples were analyzed using a Becton Dickinson LSRII flow cytometer equipped with a 488 nm laser line and a 525/50 bandpass filter for collection of fluorescence emission of Compound 1. TBHP is a membrane-permeant pro-oxidant used extensively in a model of oxidative stress in different systems. Reduction in the oxidative stress response induced by TBHP has been attributed to the ability of the antioxidant, NAC, to replenish intracellular glutathione levels. This reduces levels of reactive oxygen species.

[2] = tested on: Human osteosarcoma (U2-OS) cells; experiment: Detection of TBHP- or menadione-induced ROS by fluorescence microscopy; type: cell-based; conditions: 200 μM TBHP 2 hrs or 100 μM menadione 1 hr, 5 μM probe for last 30 min, washed 3× PBS
Procedure: Human osteosarcoma (U2-OS) cells were plated on MatTek 30 mm dishes at a density of 200,000 cells/dish and incubated at 37° C. The cells were then treated with or without 200 μM tert-butyl hydroperoxide (TBHP, 2 hrs at 37° C.) or 100 μM menadione (1 hr at 37° C.). The cells were stained with 5 μM Compound 1 for the last 30 min of the drug incubation. The cells were washed 3× with phosphate buffered saline (PBS) and imaged on a Zeiss Axiovert inverted microscope using a 40× objective.

[3] = tested on: Human osteosarcoma (U2-OS) cells; experiment: Resistance to formaldehyde fixation and detergent permeabilization; type: cell-based; conditions: 100 μM menadione 1 hr, 5 μM probe, 4% formaldehyde, 0.1% Triton X-100
Procedure: Human osteosarcoma (U2-OS) cells were plated on a 96-well plate at a density of 7,500 cells/well and incubated overnight at 37° C. The cells were treated with or without 100 μM menadione for 1 hr at 37° C. The cells were then stained with 5 μM Compound 1 and Hoechst 33342 by adding the probes to complete media and incubating at 37° C. for 30 min. The cells were washed with PBS and imaged on a Thermo Fisher Cellomics ArrayScan® VTI, either live or 4% formaldehyde fixed or formaldehyde-fixed and permeabilized with 0.1% Triton X-100.

[4] = tested on: Jurkat cells (T-cell leukemia, human); experiment: Detection of ROS in complete media vs. protein-containing buffer, flow cytometry; type: cell-based; conditions: 500 nM probe
Procedure: Jurkat cells (T-cell leukemia, human) were resuspended in complete medium (RPMI 1640 medium, GIBCO (Life Technologies, Carlsbad, Calif.), supplemented with 10% Fetal Bovine Serum, FBS) or phosphate buffered saline supplemented with 1% bovine serum albumin (BSA). Cells in both complete medium (FIG. 9, panel A) and buffered saline+1% BSA (FIG. 9, panel B) were treated with diluents control, phosphate buffered saline alone (FIG. 9, control) or 400 μM tert-butyl-hydroperoxide (FIG. 9, TBHP) for 30 minutes at 37° C., 5% CO2 prior to staining with 500 nM Compound 1. Cell samples were analyzed on a BD LSRII flow cytometer equipped with a 488 nm laser line and a 525/50 bandpass filter for collection of fluorescence emission of Compound 1. The median fluorescent intensity (MFI) of Compound 1 fluorescence in control cells (FIG. 9, panel A) and the MFI of Compound 1 fluorescence in TBHP-treated cells (FIG. 9, panel B) stained in complete media (FIG. 9, panel A) were increased compared to samples stained in protein-containing buffer (FIG. 9, panel B). As a consequence, the signal to noise ratio (or fold change in TBHP-treated cells as compared to control cells) in the samples stained in complete media (FIG. 9, panel A) is greater (13.6) than the signal to noise ratio in the samples stained in protein-containing buffer (9.6).

[5] = tested on: Human aortic smooth muscle (HASM) cells; experiment: Detection of angiotensin-II-induced oxidative stress by fluorescence microscopy; type: cell-based; conditions: 500 ng/ml angiotensin-II 4 hrs, 5 μM probe for last 30 min
Procedure: Human aortic smooth muscle (HASM) cells were plated on MatTek 30 mm dishes at a density of 150,000 cells/dish and incubated at 37° C. The cells were then treated with or without 500 ng/ml angiotensin-II for 4 hrs. The cells were stained with 5 μM Compound 1 for last 30 min of the drug incubation. The cells were washed 3× with PBS and imaged on a Zeiss Axiovert inverted microscope using a 40× objective. An increase in the signal of Compound 1 as observed for all compounds tested, indicating an increase in oxidative stress in these cell models (see, FIG. 3).

Jurkat cells [6] = experiment: Detection of oxidative stress using flow cytometry (menadione, TBHP); type: cell-based, human; conditions: menadione 25-100 μM or TBHP 50-200 μM 60 min, 5 μM probe, 488 nm laser, 530/30 filter
Procedure: Jurkat cells were diluted in RPMI with 10% FBS to a density of 10^6 cells/ml. Control cells were treated with vehicle control or DMSO, and sample cells were treated with different concentrations of menadione (25 μM, 50 μM, or 100 μM), or were treated with different concentrations of Tert-butyl hydroperoxide (TBHP) (50 μM, 100 μM, or 200 μM) for 60 min. Compound 1 was added to a final concentration of 5 μM for the last 30 minutes of drug incubation. The samples were acquired and analyzed on an Attune® Acoustic Focusing Cytometer. Compound 1 fluorescence was detected using the 488 nm laser and a 530/30 nm bandpass emission filter. A total of 20,000 events were collected using the standard 200 μl/minute collection rate. An increase in Compound 1 fluorescence intensity is observed in menadione and TBHP-treated cells compared to their controls (see, FIG. 6).

[7] = tested on: Jurkat cells (T-cell leukemia, human); experiment: Detection of ROS with and without a post-staining wash step, flow cytometry; type: cell-based
Procedure: Jurkat cells (T-cell leukemia, human) were treated with phosphate buffered saline (control; FIG. 8, panel A) or 200 μM tert-butyl-hydroperoxide (TBHP; FIG. 8, panel B) for one hour at 37° C., 5% CO2 prior to incubation with 500 nM Compound 1. Cell samples were directly analyzed on a Becton Dickinson LSRII flow cytometer equipped with a 488 nm laser line and a 525/50 bandpass filter for collection of fluorescence emission of Compound 1. Histogram overlays show cells analyzed immediately following 30 minutes incubation with Compound 1 (FIG. 8) compared to samples analyzed following three-3 mL wash steps (FIG. 8). […] The signal to noise ratio (or fold change in TBHP-treated cells as compared to control cells) in the no-wash samples was similar to the signal to noise ratio in the samples that were washed three times, 9.1 and 10.4, respectively, for the no-wash and the washed sample.

CCCCC1=C/C(=C/C2Sc3ccccc3N2C)c2ccccc2N1c1ccccc1 (stereo not shown) [Compound 1, (Z)-2-((2-butyl-1-phenylquinolin-4(1H)-ylidene)methyl)-3-methyl-2,3-dihydrobenzo[d]thiazole]
Mean Fluorescence Intensity (MFI), TBHP-treated cells (Jurkat cells [1]; 200 μM TBHP 1 hour): 3944
Mean Fluorescence Intensity (MFI), TBHP + NAC treated cells (Jurkat cells [1]; 200 μM TBHP and 1 mM N-acetyl-L-cysteine 1 hour): 2768
Mean Fluorescence Intensity (MFI), control cells (Jurkat cells [1]; phosphate buffered saline control): 365
signal of Compound 1 (fluorescence) in treated vs untreated cells [2]: increase
signal retention after formaldehyde fixation and detergent permeabilization [3]: retained well
signal to noise ratio (fold change in TBHP-treated cells as compared to control cells), protein-containing buffer ([4]; 400 μM TBHP 30 minutes, PBS + 1% BSA): 9.6
signal to noise ratio (fold change in TBHP-treated cells as compared to control cells), complete media ([4]; 400 μM TBHP 30 minutes, RPMI 1640 + 10% FBS): 13.6
median fluorescent intensity (MFI) in complete media compared to protein-containing buffer ([4]; control and 400 μM TBHP-treated cells): increased
signal of Compound 1 (fluorescence) in treated vs untreated cells [5]: increase
fluorescence intensity in menadione and TBHP-treated cells compared to controls (Jurkat cells [6]): increase
median fluorescence intensity (MFI), no-wash cells compared to washed cells ([7]; 500 nM probe 30 minutes, no wash vs three 3 mL wash steps): not significantly different
signal to noise ratio (fold change in TBHP-treated cells as compared to control cells), no-wash sample ([7]; 200 μM TBHP 1 hour, 500 nM probe, no wash): 9.1
signal to noise ratio (fold change in TBHP-treated cells as compared to control cells), washed sample ([7]; 200 μM TBHP 1 hour, 500 nM probe, washed three times): 10.4
